{"source": "patent US10975087B2", "about": "“Solid forms of tetrahydropyranyl amino-pyrrolopyrimidinone compounds” (ArQule, Inc., priority 2018, dated 2021)", "type_in_all_cases": "physicochemical", "key": {"[1]": {"test": "Form conversion under ambient or vacuum drying conditions"}, "[2]": {"test": "Dynamic vapor sorption (DVS)", "conditions": "for Post-DVS XRPD analysis (form): after exposure to elevated humidity; for moisture uptake by DVS: at 90% RH", "procedure": "Approximately 10-20 mg of sample was placed into a mesh vapor sorption balance pan and loaded into a DVS-1 dynamic vapor sorption balance by Surface Measurement Systems. […] After completion of the sorption cycle, the sample was dried using the same procedure to 0% RH and then a second sorption cycle back to 40% RH. Two cycles were performed. The weight change during the sorption/desorption cycles were plotted, allowing for the hygroscopic nature of the sample to be determined. XRPD analysis may be then carried out on any solid retained."}, "[3]": {"test": "Gravimetric vapor sorption (GVS)", "procedure": "Approximately 10-20 mg of sample was placed into a mesh vapor sorption balance pan and loaded into an IGASorp Moisture Sorption Analyzer balance by Hiden Analytical. The sample was subjected to a ramping profile from 40-90% relative humidity (RH) at 10% increments, maintaining the sample at each step until a stable weight had been achieved (98% step completion). After completion of the sorption cycle, the sample was dried using the same procedure to 0% RH, and finally taken back to the starting point of 40% RH. Two cycles were performed. The weight change during the sorption/desorption cycles were plotted, allowing for the hygroscopic nature of the sample to be determined."}, "[4]": {"test": "Acetone solubility", "conditions": "form of residual solid; amorphous input: Form 2 residual solid with additional peaks", "procedure": "Aqueous and acetone solubility was carried out using 3-10 mg of material, depending on availability, and slurrying in 150-200 μL of acetone or 300 μL of deionized water. The samples were agitated at ambient temperature then filtered by centrifugation (0.22 μm nylon filter) after ca. 24 hours and the solids analyzed by XRPD as damp solids. The filtrates were analyzed by HPLC for concentration determination. The water solubility was too low for detection using the current analytical method."}, "[5]": {"test": "Aqueous solubility", "conditions": "water, thermodynamic from solid, solvent addition method"}, "[6]": {"test": "Acetone solubility", "conditions": "organic solvent or mixture, thermodynamic from solid, partial dissolution, solvent addition method"}, "[7]": {"test": "7 day stability testing, open vials at 40° C./75% RH, ambient and 80° C.", "conditions": "40° C./75% RH, 80° C., and ambient temperature, 1 week"}, "[8]": {"test": "Accelerated storage conditions (75% RH/40° C. for 72 hours), XRPD"}, "[9]": {"test": "Salt disproportionation studies (slurry in deionized water)", "conditions": "48 hours", "procedure": "Samples of salts described herein were prepared for disproportionation studies. Approximately 15 mg of the salt material was suspended in 4 mL of deionized water at ambient temperature (ca. 22° C.). The slurry of the salt was shaken at ambient temperature and analyzed after: 1 h, 24 h, and 48 h. Each sample was filtered using a centrifuge filter. The solid was analyzed by XRPD. pH measurements were performed for the solution (three pH measurements were carried out for each sample and the average pH was calculated)."}, "[10]": {"test": "Thermodynamic solubility pH measurements", "conditions": "respective buffer, 25° C., 48 hours", "procedure": "After 2 hours at 25° C., the pH of each slurry was measured and the pH was adjusted, where required. After 24 hours at 25° C., the pH of each slurry was measured and the pH was adjusted, where required. After 48 hours at 25° C., the slurries were separated by centrifugation. The solids were analyzed by XRPD, while the pH of the separated liquors were also measured."}, "[11]": {"test": "Hydration studies in water/acetone mixtures", "conditions": "for Hydration study result (solid by XRPD): 5 days", "procedure": "Hydration experiments were performed at 25° C. and 50° C. in water/acetone mixtures with the following water content (volume %): 2%, 5%, and 20%. The samples were prepared by adding 250 μL of the water/acetone mixture to 15 mg of the salt sample. The samples were stirred at 25° C. or at 50° C. After 2 days, the samples were inspected for the presence of solid. If solid was not observed, additional salt material was added to the dissolved samples. Samples were stirred for an additional 3 days. After 5 days, samples were filtered and the solid obtained was analyzed by XRPD."}, "[12]": {"test": "Karl Fischer coulometric titration (KF) water content", "procedure": "Approximately 10-30 mg of solid material was accurately weighed into a vial. The solid was then manually introduced into the titration cell of a Mettler Toledo C30 Compact Titrator. The vial was back-weighed after the addition of the solid and the weight of the added solid entered on the instrument. Titration was initiated once the sample had fully dissolved in the cell. The water content was calculated automatically by the instrument as a percentage and the data printed."}}, "data": [{"smiles": "O=C(O)C(=O)O.O=C(c1ccc(Oc2ccccc2)cc1Cl)c1c[nH]c2ncnc(N[C@@H]3CC[C@@H](CO)OC3)c12", "note": "[oxalate Form 1]", "values": [{"measurement": "form conversion under vacuum drying conditions", "setting": "[1]", "result": "converts to oxalate Form 5"}]}, {"smiles": "O=C(c1ccc(Oc2ccccc2)cc1Cl)c1c[nH]c2ncnc(N[C@@H]3CC[C@@H](CO)OC3)c12.O=S(=O)(O)c1cccc2c(S(=O)(=O)O)cccc12", "note": "[1,5-naphthalene disulfonic acid Form 2]", "values": [{"measurement": "form conversion under vacuum drying conditions", "setting": "[1]", "result": "converts 1,5-naphthalene disulfonic acid Form 4"}]}, {"smiles": "O=C(c1ccc(Oc2ccccc2)cc1Cl)c1c[nH]c2ncnc(N[C@@H]3CC[C@@H](CO)OC3)c12", "note": "[amorphous Compound A, (2-chloro-4-phenoxyphenyl)(4-(((3R,6S)-6-(hydroxymethyl)tetrahydro-2H-pyran-3-yl)amino)-7H-pyrrolo[2,3-d]pyrimidin-5-yl)methanone]", "values": [{"measurement": "hygroscopic nature by DVS", "setting": "[2]", "result": "hygroscopic"}, {"measurement": "Post-DVS XRPD analysis (form)", "setting": "[2]", "result": "remain amorphous"}, {"measurement": "moisture uptake by DVS", "setting": "[2]", "result": 3.9, "unit": "%"}, {"measurement": "XRPD post GVS", "setting": "[3]; cell wraps: Remained | unchanged", "result": "Remained"}, {"measurement": "GVS (hygroscopicity)", "setting": "[3]; summary Table 11", "result": 3.9, "unit": "% uptake"}, {"measurement": "Acetone solubility: residual solid", "setting": "[4]", "result": "(Form 2 residual"}, {"measurement": "Solubility", "setting": "[5]", "result": "< 10", "unit": "mg/mL"}, {"measurement": "Solubility", "setting": "[6]", "result": "≥ 16", "unit": "mg/mL"}]}, {"smiles": "Cl.O=C(c1ccc(Oc2ccccc2)cc1Cl)c1c[nH]c2ncnc(N[C@@H]3CC[C@@H](CO)OC3)c12", "note": "[hydrochloride Form 1]", "values": [{"measurement": "form conversion under ambient conditions", "setting": "[1]; ambient conditions", "result": "gradually converts to hydrochloride Form 2"}]}, {"smiles": "Br.O=C(c1ccc(Oc2ccccc2)cc1Cl)c1c[nH]c2ncnc(N[C@@H]3CC[C@@H](CO)OC3)c12", "note": "[hydrobromide Form 1]", "values": [{"measurement": "Post-DVS XRPD analysis (form)", "setting": "[2]", "result": "no change in form from the input material"}, {"measurement": "moisture uptake by DVS", "setting": "[2]", "result": "ca. 7.0%"}, {"measurement": "XRPD analysis after storage for 1 week", "setting": "[7]", "result": "no change in form from the input material"}, {"measurement": "stability under accelerated storage conditions (XRPD)", "setting": "[8]", "result": "stable"}, {"measurement": "XRPD after salt disproportionation study, 48 hours", "setting": "[9]", "result": "no change from the input material"}, {"measurement": "XRPD after thermodynamic solubility studies", "setting": "[10]", "result": "no change from the input material"}, {"measurement": "solid obtained in hydration study (XRPD)", "setting": "[11]; 2% and 5% water in acetone, 25° C.", "result": "recovered"}, {"measurement": "solid obtained in hydration study (XRPD)", "setting": "[11]; 2% water in acetone, 50° C.", "result": "potentially new form"}, {"measurement": "Hydration study result (solid by XRPD)", "setting": "[11]; 2% water in water/acetone, 25° C., Form = form of the same salt", "result": "Form 1"}, {"measurement": "Hydration study result (solid by XRPD)", "setting": "[11]; 2% water in water/acetone, 50° C., Form = form of the same salt", "result": "low crystallinity"}, {"measurement": "Hydration study result (solid by XRPD)", "setting": "[11]; 5% water in water/acetone, 25° C., Form = form of the same salt", "result": "Form 1"}, {"measurement": "Hydration study result (solid by XRPD)", "setting": "[11]; 5% water in water/acetone, 50° C., Form = form of the same salt", "result": "Gum"}, {"measurement": "Hydration study result (solid by XRPD)", "setting": "[11]; 20% water in water/acetone, 25° C.", "result": "Gum"}, {"measurement": "Hydration study result (solid by XRPD)", "setting": "[11]; 20% water in water/acetone, 50° C.", "result": "Gum"}, {"measurement": "solid obtained in hydration study", "setting": "[11]; the other experiments (remaining water contents/temperatures)", "result": "gum"}, {"measurement": "KF moisture (water) content", "setting": "[12]", "result": 7.39, "unit": "%"}]}]}
